Among the data in patent publication US20070167490A1, “Imino ether derivative compounds and drugs containing the compounds as the active ingredient” (Ono Pharmaceutical Co Ltd, priority 2003, published 2007) are melting point values, retold here.

One may read the melting point as the temperature of the solid-liquid transition. `CC/C(=N\OCCOc1cccc(CC(=O)O)c1)c1ccc(-c2cccs2)cc1` [14(30), (3-{2-[({(1E)-1-[4-(2-thienyl)phenyl]propylidene}amino)oxy]ethoxy}phenyl)acetic acid] displayed a melting point of 117 to 120 °C.
In turn, `CC/C(=N\OCCOc1cccc(CC(=O)O)c1)c1ccc(-n2cccn2)cc1` [14(35), (3-{2-[({(1E)-1-[4-(1H-pyrazol-1-yl)phenyl]propylidene}amino)oxy]ethoxy}phenyl)acetic acid] gave a melting point of 143.5 to 147 °C.
